According to ChEMBL document CHEMBL2203275, “Design and synthesis of novel bis-thiazolone derivatives as micromolar CDC25 phosphatase inhibitors: effect of dimerisation on phosphatase inhibition” (Bioorg Med Chem Lett, 2012):

What was measured:
[1] = biological target: T1, Tyrosine-protein phosphatase non-receptor type 1 (Homo sapiens, UniProt P18031); experiment: Inhibition of PTP1B using fluorescein 3,6 diphosphate as substrate measured for 1 hr in presence of 1 mM dithiothreitol
T1 sequence (P18031 whole entry): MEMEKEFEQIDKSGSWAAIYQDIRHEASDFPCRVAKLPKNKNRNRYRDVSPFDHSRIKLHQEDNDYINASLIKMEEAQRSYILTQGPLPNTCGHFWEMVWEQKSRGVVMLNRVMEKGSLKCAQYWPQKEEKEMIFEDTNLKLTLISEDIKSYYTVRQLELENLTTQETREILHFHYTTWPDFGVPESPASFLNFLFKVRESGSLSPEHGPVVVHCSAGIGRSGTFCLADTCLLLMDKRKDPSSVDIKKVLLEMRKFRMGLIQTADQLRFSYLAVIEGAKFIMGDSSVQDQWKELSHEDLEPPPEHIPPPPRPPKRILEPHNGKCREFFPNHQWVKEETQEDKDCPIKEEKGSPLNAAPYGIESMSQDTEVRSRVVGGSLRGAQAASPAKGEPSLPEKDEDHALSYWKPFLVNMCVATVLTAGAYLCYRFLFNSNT

[2] = biological target: T2, Tyrosine-protein phosphatase non-receptor type 1 (Homo sapiens) (UniProt P18031); experiment: Inhibition of PTP1B using fluorescein 3,6 diphosphate as substrate at 50 uM measured for 1 hr in presence of 1 mM dithiothreitol
T2 sequence (whole entry): T1 sequence (P18031 whole entry)

[3] = biological target: T3, Dual specificity protein phosphatase 3 (Homo sapiens, UniProt P51452); experiment: Inhibition of VHR using fluorescein 3,6 diphosphate as substrate at 100 uM measured for 1 hr in presence of 1 mM dithiothreitol
Target sequence in this assay (P51452 whole entry, looked up, the tested form may be a part): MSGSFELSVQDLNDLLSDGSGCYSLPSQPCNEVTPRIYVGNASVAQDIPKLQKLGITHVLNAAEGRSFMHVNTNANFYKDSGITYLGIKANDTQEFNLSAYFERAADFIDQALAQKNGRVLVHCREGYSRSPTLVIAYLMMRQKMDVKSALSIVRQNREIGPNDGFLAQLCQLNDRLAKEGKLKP

[4] = biological target: T4, M-phase inducer phosphatase 2 (Homo sapiens, UniProt P30305); experiment: Inhibition of MBP-fused recombinant wild type CDC25B3 using fluorescein 3,6 diphosphate as substrate measured for 30 mins in presence of 1 mM dithiothreitol
T4 sequence (P30305 whole entry): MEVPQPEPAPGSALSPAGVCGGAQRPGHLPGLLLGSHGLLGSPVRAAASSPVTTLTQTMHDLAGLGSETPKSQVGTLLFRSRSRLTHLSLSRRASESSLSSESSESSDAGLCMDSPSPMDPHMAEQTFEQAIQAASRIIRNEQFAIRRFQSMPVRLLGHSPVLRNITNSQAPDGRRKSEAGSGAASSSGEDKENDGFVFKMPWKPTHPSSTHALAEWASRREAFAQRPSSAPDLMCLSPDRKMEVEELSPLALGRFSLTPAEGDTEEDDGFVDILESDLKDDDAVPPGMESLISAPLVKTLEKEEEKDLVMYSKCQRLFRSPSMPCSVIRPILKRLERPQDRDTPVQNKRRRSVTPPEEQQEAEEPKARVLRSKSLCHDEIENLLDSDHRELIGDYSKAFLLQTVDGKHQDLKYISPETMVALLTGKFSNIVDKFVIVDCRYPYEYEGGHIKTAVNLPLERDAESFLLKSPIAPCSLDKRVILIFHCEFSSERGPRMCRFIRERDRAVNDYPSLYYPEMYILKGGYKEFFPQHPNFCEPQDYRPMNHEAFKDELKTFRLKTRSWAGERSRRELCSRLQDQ

[5] = biological target: T2, Tyrosine-protein phosphatase non-receptor type 1 (Homo sapiens); experiment: Inhibition of PTP1B using fluorescein 3,6 diphosphate as substrate at 100 uM measured for 1 hr in presence of 1 mM dithiothreitol
[6] = biological target: T3, Dual specificity protein phosphatase 3; experiment: Inhibition of VHR using fluorescein 3,6 diphosphate as substrate measured for 1 hr in presence of 1 mM dithiothreitol
Target sequence in this assay (P51452 whole entry, the tested form may be a part): as the sequence (P51452 whole entry, looked up, the tested form may be a part) above

[7] = biological target: T2, Tyrosine-protein phosphatase non-receptor type 1 (Homo sapiens); experiment: Inhibition of PTP1B using fluorescein 3,6 diphosphate as substrate at 10 uM measured for 1 hr in presence of 1 mM dithiothreitol
[8] = biological target: T3, Dual specificity protein phosphatase 3; experiment: Inhibition of VHR using fluorescein 3,6 diphosphate as substrate at 10 uM measured for 1 hr in presence of 1 mM dithiothreitol
Target sequence in this assay (P51452 whole entry, looked up, the tested form may be a part): as the sequence (P51452 whole entry, looked up, the tested form may be a part) above

[9] = biological target: T4, M-phase inducer phosphatase 2; experiment: Inhibition of MBP-fused recombinant wild type CDC25B3 using fluorescein 3,6 diphosphate as substrate measured for 30 mins in presence of 10 mM dithiothreitol
[10] = biological target: T4, M-phase inducer phosphatase 2; experiment: Inhibition of MBP-fused recombinant wild type CDC25B3 using fluorescein 3,6 diphosphate as substrate measured for 30 mins in presence of 20 mM dithiothreitol
[11] = biological target: T5, M-phase inducer phosphatase 2 (Homo sapiens) (UniProt P30305); experiment: Inhibition of MBP-fused recombinant wild type CDC25B3 using fluorescein 3,6 diphosphate as substrate at 100 uM measured for 30 mins in presence of 1 mM dithiothreitol
T5 sequence (whole entry): T4 sequence (P30305 whole entry)

## O=C1N=C(NCCCCCCCNC2=NC(=O)/C(=C/c3ccc(O)cc3)S2)S/C1=C\c1ccc(O)cc1
[1]
  IC50: 30.6 µM

## O=C1N=C(NCCCc2cn(CCCNC3=NC(=O)/C(=C/c4ccc(O)cc4)S3)nn2)S/C1=C\c1ccc(O)cc1
[2]
  inhibition: 50%

## O=C1N=C(NCCCCCCCNC2=NC(=O)/C(=C/C=C/c3ccccc3)S2)S/C1=C\C=C\c1ccccc1
[3]
  inhibition: 34%
[4]
  IC50: 7.7 µM
[5]
  inhibition: 51%

## O=C1N=C(NCCCCCCCNC2=NC(=O)/C(=C/c3ccc4c(c3)OCO4)S2)S/C1=C\c1ccc2c(c1)OCO2
[3]
  inhibition: 27%
[4]
  IC50: 13.8 µM
[5]
  inhibition: 30%

## O=C1N=C(NCCCn2cc(CCNC3=NC(=O)/C(=C/c4ccc(O)cc4)S3)nn2)S/C1=C\c1ccc(O)cc1
[3]
  inhibition: 55%
[2]
  inhibition: 20%
[4]
  IC50: 20.6 µM

## O=C1N=C(NCCCCCCCNC2=NC(=O)/C(=C/c3ccccc3)S2)S/C1=C\c1ccccc1
[1]
  IC50: 41.3 µM

## O=C1N=C(NCCCCCNC2=NC(=O)/C(=C/c3ccc(O)cc3)S2)S/C1=C\c1ccc(O)cc1
[6]
  IC50: 75.8 µM
[1]
  IC50: 20.6 µM
[4]
  IC50: 13.9 µM

## CNC1=NC(=O)/C(=C/c2ccc(O)cc2)S1
[5]
  inhibition: 32%

## O=C1N=C(NCCN2CCN(CCNC3=NC(=O)/C(=C/c4ccc(O)cc4)S3)CC2)S/C1=C\c1ccc(O)cc1
[1]
  IC50: 46 µM

## O=C1N=C(NCCCCCCCCCNC2=NC(=O)/C(=C/c3ccc(O)cc3)S2)S/C1=C\c1ccc(O)cc1
[1]
  IC50: 6.2 µM

## O=C1N=C(NCCN2CCN(CCNC3=NC(=O)/C(=C/c4cc(Br)c(O)c(Br)c4)S3)CC2)S/C1=C\c1ccc(O)cc1
[7]
  inhibition: 33%
[5]
  inhibition: 100%

## CCCCCNC1=NC(=O)/C(=C/c2ccc(O)cc2)S1
[5]
  inhibition: 35%

## CCCCNC1=NC(=O)/C(=C/c2ccc(O)cc2)S1
[5]
  inhibition: 35%

## O=C1N=C(NCCCn2cc(CNC3=NC(=O)/C(=C/c4ccc(O)cc4)S3)nn2)S/C1=C\c1ccc(O)cc1
[2]
  inhibition: 25%

## O=C1N=C(NCCCCNC2=NC(=O)/C(=C/c3ccc(O)cc3)S2)S/C1=C\c1ccc(O)cc1
[1]
  IC50: 28.4 µM

## O=C1N=C(NCCN2CCN(CCNC3=NC(=O)/C(=C/c4ccc5c(c4)OCO5)S3)CC2)S/C1=C\c1ccc(O)cc1
[3]
  inhibition: 29%
[4]
  IC50: 4.4 µM
[5]
  inhibition: 19%

## O=C1N=C(NCCN2CCN(CCNC3=NC(=O)/C(=C/c4ccc5[nH]ncc5c4)S3)CC2)S/C1=C\c1ccc(O)cc1
[5]
  inhibition: 18%

## O=C1N=C(NCCN2CCN(CCNC3=NC(=O)/C(=C/c4ccc(O)cc4)S3)CC2)S/C1=C\C=C\c1ccccc1
[5]
  inhibition: 13%

## CC1=CC(=O)c2ccccc2C1=O [MENADIONE]
[4]
  IC50: 2.2 µM

## O=C(O)/C=C/c1ccc(/C=C2\SC(NCCCCCCCNC3=NC(=O)/C(=C/c4ccc(/C=C/C(=O)O)cc4)S3)=NC2=O)cc1
[1]
  IC50: 26.9 µM

## O=C1N=C(NCCCCCCCNC2=NC(=O)/C(=C/c3cc(Br)c(O)c(Br)c3)S2)S/C1=C\c1cc(Br)c(O)c(Br)c1
[3]
  inhibition: 100%
[1]
  IC50: 24.2 µM
[8]
  inhibition: 31%
[4]
  IC50: 1.38 µM
[9]
  IC50: 3.1 µM
[10]
  IC50: 3.2 µM

## O=C1N=C(NCc2ccccc2)S/C1=C\c1ccc(O)cc1
[3]
  inhibition: 8%
[5]
  inhibition: 46%
[11]
  inhibition: 45%

## O=C1N=C(NCCN2CCN(CCNC3=NC(=O)/C(=C/c4ccc(O)cc4)S3)CC2)S/C1=C\C=C\c1ccco1
[5]
  inhibition: 39%

## O=C1N=C(NCCCCCCCCNC2=NC(=O)/C(=C/c3ccc(O)cc3)S2)S/C1=C\c1ccc(O)cc1
[3]
  inhibition: 29%
[1]
  IC50: 11.6 µM
[4]
  IC50: 3.9 µM

## O=C1N=C(NCCCCCCCNC2=NC(=O)/C(=C/c3ccc(-c4ccccc4)o3)S2)S/C1=C\c1ccc(-c2ccccc2)o1
[5]
  inhibition: 50%

## O=C1N=C(NCCCc2cn(CCNC3=NC(=O)/C(=C/c4ccc(O)cc4)S3)nn2)S/C1=C\c1ccc(O)cc1
[2]
  inhibition: 35%

## O=C1N=C(NCC2CCCC(CNC3=NC(=O)/C(=C/c4ccc(O)cc4)S3)C2)S/C1=C\c1ccc(O)cc1 (stereo not drawn)
[3]
  inhibition: 30%
[1]
  IC50: 9 µM
[4]
  IC50: 6.6 µM

## O=C1N=C(NCc2cccc(CNC3=NC(=O)/C(=C/c4ccc(O)cc4)S3)c2)S/C1=C\c1ccc(O)cc1
[1]
  IC50: 9.1 µM

## O=C1N=C(NCCCCCCCNC2=NC(=O)/C(=C/c3ccc(O)c(O)c3)S2)S/C1=C\c1ccc(O)c(O)c1
[1]
  IC50: 23.4 µM

## COc1cc(/C=C2\SC(NCCCCCCCNC3=NC(=O)/C(=C/c4cc(OC)c(O)c(OC)c4)S3)=NC2=O)cc(OC)c1O
[5]
  inhibition: 2%

## O=C1N=C(NCCCCCCNC2=NC(=O)/C(=C/c3ccc(O)cc3)S2)S/C1=C\c1ccc(O)cc1
[1]
  IC50: 12.4 µM
